From PMC4179164, “Ophiobolin A from Bipolaris oryzae Perturbs Motility and Membrane Integrities of Porcine Sperm and Induces Cell Death on Mammalian Somatic Cell Lines” (Toxins, 2014)
Converted amounts (≈) assume the structure as drawn.

Key:
boar spermatozoa [1] = assay: Sperm motility inhibition assay (progressive and rapid motility); format: cell-based; settings: 24 h, boar spermatozoa, 24 h exposure at room temperature, read-out: Toxic endpoint EC50, Motility inhibition (24 h)
Experimental: Furthermore, their physiological characters including their motility are influenced mainly by membrane potentials and ion fluxes. Thus, the change of sperm motility is able to sensitively indicate the substances causing mitochondrial membrane depolarization even at sublethal doses, which is undetectable with other cell lines. Motility of the spermatozoa was judged after exposure of 30 min and 24 h at room temperature with minor modification of a previously described method.
The sperm motility inhibition assay was done as reported by Andersson et al.. Commercial boar semen obtained from Figen Oy Finland extended in MR-A (Kubus, S.A., Madrid, Spain) containing 27 × 10^6 spermatozoa·mL^−1 was used. The purified OPA was diluted by serial dilutions in methanol obtaining two ranges of concentrations with 4-4 levels from 2500 μg mL^−1 to 250.0 μg mL^−1 and from 50 μg mL^−1 to 5.0 μg mL^−1, for short and long time exposures, respectively. Twenty μL of each dilution was administered to 2 mL of MR-A-diluted boar semen resulting approximately 100 times dilution of the original stock solutions; 20 μL of methanol was added to spermatozoa in the same way as a blank assay. The samples were incubated for 30 min and 24 h at room temperature for short and long term exposure assays, respectively. After exposure, motility was induced in the sperm cells by incubation in 37 °C for 5 min and shaking to provide the sperm cells with oxygen. […]
The above described subjective motility assay was calibrated with an automatic Hamilton Thorne sperm motility analyzer (HTM-S, ver. 7.2; Hamilton-Thorn Research, Danvers, MA, USA). […] Thus the protocol for assessing sperm tail beating as a measure of motility inhibition gave 99% similarity to measurements of the proportion of rapidly motile spermatozoa done with Hamilton Thorne sperm analyzer (HTM-S, ver. 7.2; Hamilton-Thorn Research, Danvers, MA, USA) Toxicity was expressed as the endpoint concentration of the OPA solution, where the progressive and rapid motility of the sperm cells were <50% of the vehicle exposed sperm cells. […]

boar spermatozoa [2] = assay: Cell membrane permeability assay on motile sperm cells (PI staining); format: cell-based; settings: boar spermatozoa, motile at 37 °C, 2 h; read-out: Toxic endpoint EC50, Permeability to PI on motile cells
Experimental: To test the effect of OPA exposure on sperm cells in physiological conditions (swimming at 37 °C) the plasma membrane disruption on motile sperm cells was measured with the viability PI stain, where the loss of plasma membrane integrity was detected as appearance of red color stained nuclei in the damaged cells. In this assay, sperm cells were exposed to OPA at 37 °C and motility of the exposed sperm cells was induced and maintained for 2 h.
Cell membrane permeability assay on motile sperm cells was inspected by staining with PI (Molecular Probes, Eugene, OR, USA) in sperm cells induced to swim by shaking at 37 °C. One hundred and fifty μL aliquots of commercial extended boar semen with a density of 27 × 10^6 sperms mL^−1 were pipetted into microtiter plate wells and serially diluted methanolic solution of OPA were added in the concentration range of 200 ng mL^−1 to 4 μg mL^−1 including 6 levels and an additional methanol blank, and pre-incubated for 2 h on orbital shaker (Innova 5000 new Brunswick Scientific, Enfield, CT, USA) (160 rpm) at 37 °C. Four parallel measurements were done for each dilution. One ml PI solution (1 mg mL^−1 in Dulbeco’s phosphate buffered saline) was mixed with 3 mL of […] Dulbeco’s phosphate buffered saline. One hundred and fifty μL of this stain mixture was added to 150 μL of exposed boar semen. This suspension was incubated for 15 min at 37 °C in dark and measured using a microplate reader (Fluoroskan Ascent, Thermo Scientific, Vantaa, Finland) at excitation and emission wavelengths of 544 nm and 600 nm, respectively. For observing plasma membrane damage by PI staining frozen-thawed semen was used as a positive control (for mortality of 100%) representing the maximal fluorescence emitted by the cells permeable to PI and Dulbeco’s phosphate buffered saline was applied as background control (blank). Loss of viability in the sample was calculated as described in Alm et al.. The frozen sample represented 100% loss of viability. The assay was calibrated with triclosan (Sigma Chemical Co., St. Louis, MO, USA), in 5 parallel tests, the EC50 was 2 μg mL^−1 (SD ± 0.6). Cell membrane permeability assay on static sperm cells at room temperature was carried out by viability staining with PI and calcein-AM (Molecular Probes, Eugene, OR, USA) according to Hoornstra et al. in same concentration range and levels described above.

[3] = Mammalian somatic cell toxicity assay calibration (cell line not stated); format: cell-based; settings: 10 parallel tests, SD ± 3.4, cell line not stated
Experimental: Cytotoxicity against somatic cells was tested with feline fetus lung cells (FFL) cultivated as described by Andersson et al. and murine neuroblastoma cells (MNA) as described by Kulonen et al. as well as porcine kidney tubular epithelial cell line (PK-15), cultured as reported earlier. All somatic cell lines were maintained in an atmosphere of 95% air, 5% CO2 and 95% relative humidity at 37 °C on RPMI 1640 (complete medium) in a cell culture cabinet (Heracell 150i; Thermo Fisher Scientific, Vantaa, Finland). The detached cells were seeded onto 96 well microtiter plates and exposed to the purified OPA, the final concentration of which ranged from 48.8 ng mL^−1 to 25 μg mL^−1 containing 10 levels in methanol. After incubating the plates for one day at 37 °C, inhibition of cell proliferation was inspected in phase contrast microscope. EC100 for inhibition of proliferation was easy to observe as absence of cell monolayer and absence of intact cells in the well. EC0 was also easy to observe as an intact cell monolayer indistinguishable from the control. In microscope the determining of EC50 was more difficult. […] Then, the plates were analyzed by a microtiter plate reader (Fluoroskan Ascent, Thermo Scientific, Vantaa, Finland) at the excitation and emission wavelengths of 544 nm and 590 nm, respectively. […]

boar spermatozoa [4] = settings: ref 4 (alamethicin, trilongin), 5 (acrebol), 6 (enniatin B), cited from earlier work
boar spermatozoa [5] = settings: ref 4 (alamethicin, trilongin), 5 (acrebol), 6 (enniatin B); cited from earlier work
boar spermatozoa [6] = settings: ref 4 (alamethicin, trilongin), 5 (acrebol), 6 (enniatin B); cited from earlier work; remark: listed apart in the source
boar spermatozoa [7] = settings: ref 4 (alamethicin, trilongin), 5 (acrebol), 6 (enniatin B); cited from earlier work; remark: listed apart in the source
boar spermatozoa [8] = settings: ref 4 (alamethicin), 6 (enniatin B); cited from earlier work
[9] = test system: porcine kidney (PK-15) cells; settings: ref 4 (alamethicin, trilongin), 5 (acrebol), 6 (enniatin B); cited from earlier work

| Compound | EC50 (boar spermatozoa [1]) | EC50 (boar spermatozoa [2]) | EC50 at 3 days [3] | Toxic endpoint EC50, Motility inhibition (30 min) (boar spermatozoa [4]) | Toxic endpoint EC50, Motility inhibition (24 h) (boar spermatozoa [4]) | Toxic endpoint EC50, Shivering tail beating induction (boar spermatozoa [5]) | Toxic endpoint EC50, Dissipation of ΔΨm (boar spermatozoa [6]) | Toxic endpoint EC50, Permeability to PI on static cells (boar spermatozoa [7]) | Toxic endpoint EC50, Permeability to PI on motile cells (boar spermatozoa [8]) | Toxic endpoint EC50, Cytotoxicity, PK-15 cells [9] |
| --- | --- | --- | --- | --- | --- | --- | --- | --- | --- | --- |
| Oc1cc(Cl)ccc1Oc1ccc(Cl)cc1Cl [triclosan] | 1 µg/mL (≈ 3.45 µM) | 2 µg/mL (≈ 6.91 µM) | 9.4 µg/mL (≈ 32.5 µM) | – | – | – | – | – | – | – |
| Alamethicin | – | – | – | 1 µg/mL | 0.2 µg/mL | None | 0.2 µg/mL | 0.2 µg/mL | ≤0.5 µg/mL | 8 µg/mL |
| CC(C)[C@H]1C(=O)O[C@H](C(C)C)C(=O)N(C)[C@@H](C(C)C)C(=O)O[C@H](C(C)C)C(=O)N(C)[C@@H](C(C)C)C(=O)O[C@H](C(C)C)C(=O)N1C [Enniatin B] | – | – | – | >10 µg/mL | 5 µg/mL | None | 5 µg/mL | >50 µg/mL | >20 µg/mL | 60 µg/mL |
| Acrebol | – | – | – | 2 µg/mL | 0.1 µg/mL | None | 0.8 µg/mL | >4 µg/mL | – | ≥10 µg/mL |
